# Results: US20230304058A1, “NOVEL 5'CAP ANALOG HAVING CAP2 STRUCTURE AND PREPARATION METHOD THEREFOR” (Shenzhen Rhegen Biotechnology Co., Ltd., priority 2020, published 2023)
# Assays:
# [1] = test system: TLR3, TLR7, TLR8 and RIG-1; assay: Intracellular immunogenicity of capped mRNA by RNA immunoprecipitation and quantitative PCR; type: cell-based; settings: relative to ARCA; Human-derived PBMC cells, 5 μg mRNA, Lipofectamine 2000, 24 h
# Protocol: Experimental methods: the intracellular immunoproteins TLR3, TLR7, TLR8 and RIG-1 were immunoprecipitated together with their bound RNAs by RNA immunoprecipitation, and finally these mRNAs were identified by real-time quantitative PCR, and their relative abundance was proportional to their immunogenicity.
# The cells were collected by trypsin digestion 24 h later and resuspended in PBS, centrifuged, and collected.
# Fixative was added to the cells, and after 15 minutes glycine was added for termination of fixation, followed by centrifugation to collect the cells. Cells were resuspended by adding lysate, incubated on ice at 4° C. for 30 min, centrifuged at 2400 g for 10 min, and the supernatant was collected.
# TLR3, TLR7, TLR8 and RIG-1 antibodies (2-10 μg) were added to the supernatant (6-10 mg) followed by gentle incubation at 4° C. for 2 hours. Protein AIG beads (40 μL) were then added to them and incubated gently for 1 h at 4° C.
# Centrifuge at 2500 rpm for 30 seconds with precipitated magnetic beads and remove the supernatant. Resuspend the beads in 500 μL of RIP buffer. Wash in RIP buffer a total of three times, followed by one wash in PBS.
# Resuspend magnetic beads in TRIzol RNA Extraction Reagent (1 mL) and isolate co-precipitated RNA, and then elute RNA using nuclease-free water (20 μL).
# 6. Reverse transcribe (RT) the RNA into cDNA and design primers according to the mRNA sequence for quantitative PCR analysis. mRNA immunogenicity is proportional to the number of mRNA copies precipitated by magnetic beads.
# [2] = biological target: T1, T7 Enzyme Mix (Escherichia phage T7, UniProt P00573); settings: background, co-transcriptional capping; cited from earlier work
# T1 sequence (P00573 whole entry): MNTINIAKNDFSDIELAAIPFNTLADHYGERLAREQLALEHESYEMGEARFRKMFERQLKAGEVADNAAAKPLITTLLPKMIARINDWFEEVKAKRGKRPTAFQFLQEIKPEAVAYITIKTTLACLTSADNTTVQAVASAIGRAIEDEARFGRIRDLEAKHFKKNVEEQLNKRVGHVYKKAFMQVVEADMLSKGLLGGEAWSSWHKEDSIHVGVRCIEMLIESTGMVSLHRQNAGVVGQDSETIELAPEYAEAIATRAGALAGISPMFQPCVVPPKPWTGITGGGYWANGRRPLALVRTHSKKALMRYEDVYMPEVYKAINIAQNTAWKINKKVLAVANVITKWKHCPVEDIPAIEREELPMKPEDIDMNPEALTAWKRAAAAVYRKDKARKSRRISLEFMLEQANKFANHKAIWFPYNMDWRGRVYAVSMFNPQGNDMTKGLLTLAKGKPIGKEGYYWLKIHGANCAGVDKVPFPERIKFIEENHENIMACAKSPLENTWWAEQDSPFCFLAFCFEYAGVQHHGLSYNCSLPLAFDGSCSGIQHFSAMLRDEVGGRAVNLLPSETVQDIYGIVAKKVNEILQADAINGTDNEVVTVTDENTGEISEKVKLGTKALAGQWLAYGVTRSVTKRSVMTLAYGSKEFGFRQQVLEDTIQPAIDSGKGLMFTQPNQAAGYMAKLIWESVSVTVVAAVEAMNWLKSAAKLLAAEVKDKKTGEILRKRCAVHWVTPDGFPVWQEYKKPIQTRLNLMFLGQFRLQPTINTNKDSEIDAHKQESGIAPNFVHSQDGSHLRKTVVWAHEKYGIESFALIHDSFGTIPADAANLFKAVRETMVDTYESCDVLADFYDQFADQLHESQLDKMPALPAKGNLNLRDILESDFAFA
# [3] = test system: mRNA; settings: background, co-transcriptional capping; cited from earlier work
# [4] = background; cited from earlier work
# [5] = biological target: T1, T7 Enzyme Mix; assay: In vitro transcription mRNA synthesis with cap analog, reaction yield; type: biochemical; settings: per ml transcription reaction system; 37° C. for 6 h; LiCl purification
# Protocol: 1. Before synthesizing mRNA, linearize the plasmid with Notl, digested at […] overnight;
# 2. Extract with DNA template;
# React at 37° C. for 6 h. Digest with TURBO DNase for 15 min.
# 4. Purify the transcription products using LiCl solution and calculate the reaction yields.
# [6] = test system: mRNA; assay: mRNA capping rate by RNase H cleavage and LC-MS; type: biochemical; settings: ratio of capped and uncapped mRNA
# From the text: The mRNA molecules with different Cap structures obtained in Example 1 were subjected to enzymatic cleavage, and the ratio of capped and uncapped mRNA molecules could be determined in a liquid chromatography-mass spectrometry analysis experiment.
# 1. Concentrate the beads using a magnet, aspirate the supernatant storage solution, and add an equal volume of 0.1 M NaOH +0.05 M NaCl;
# 2. Aspirate the supernatant and resuspend the beads with an equal volume of 0.1 M NaCl, keep the concentration constant;
# 3. Anneal mRNA and cleavage tags, configure the following reaction system;
# Gradient annealing: 95° C. 5 min
# 4. Combining cleavage tags with beads • Beads were centrifuged at 15,000 g for 5 min, and the supernatant was removed, then 120 μl of annealed mRNA and tags were added and incubated for 30 min at room temperature, during which time they were gently shaken to ensure adequate binding.
# 5. Enzyme cleavage using RNase H; • Add 10 μl RNase H and incubate at 37° C. for 3 h. Precipitate the beads with magnet and discard the supernatant. • Add 100 μl washing buffer, mix thoroughly, magnet precipitate for 2 min, and discard the supernatant. Repeat 3 times. • Wash with DI water for 3 times.
# 6. Hydrolysis with RppH; • Use 10 units RppH in nebuffer 2 to hydrolyze at room temperature for 1 h.
# DI water was aspirated, 100 μl of 75% ethanol preheated to 80° C. was added, incubat for 3 min, and magnet precipitat for 3 min. The supernatant was taken, followed by evaporating, and centrifuge for 45 min to a volume of 10 μl. Finally, the sample was resuspended in 50 μl of […] EDTA/1% MeOH and left for LC-MS analysis.
# 9. the mRNA capping rate of different Cap analogs synthesized was analyzed with LC-MS.
Compound,Intracellular immunogenicity of mRNA when using different Cap structures [1],RNA prepared per ml of transcription reaction system [2],capping efficiency [3],immunogenicity of transcribed product [4],Mass of final product obtained from 1 ml mRNA synthesis reaction system [5],mRNA capping rates when using different Cap structures [6]
CO[C@H]1[C@@H](O)[C@H](n2c[n+](C)c3c(=O)[nH]c(N)nc32)O[C@@H]1COP(=O)(O)OP(=O)(O)OP(=O)(O)OC[C@H]1O[C@@H](n2cnc3c(=O)[nH]c(N)nc32)[C@H](O)[C@@H]1O [ARCA],1,≤ 1.5 mg,70%,highly immunogenic,–,–
"CO[C@@H]1[C@H](O)[C@@H](COP(=O)(O)O[C@H]2[C@@H](OC)[C@H](n3cnc4c(=O)[nH]c(N)nc43)O[C@@H]2COP(=O)(O)OP(=O)(O)OP(=O)([O-])OC[C@H]2O[C@@H](n3c[n+](C)c4c(=O)[nH]c(N)nc43)[C@H](O)[C@@H]2OC)O[C@H]1n1cnc2c(N)ncnc21 [Cap analog 22, 3-O-Me-m7G(5′)ppp(5′)(2′OMeG)p(2′OMeA)]",0.29,–,–,–,4.6 mg,94.83%
"CO[C@@H]1[C@H](OP(=O)(O)OC[C@H]2O[C@@H](n3cnc4c(N)ncnc43)[C@H](OC)[C@@H]2O)[C@@H](COP(=O)(O)OP(=O)(O)OP(=O)([O-])OC[C@H]2O[C@@H](n3c[n+](C)c4c(=O)[nH]c(N)nc43)[C@H](O)[C@@H]2OC)O[C@H]1n1ccc(N)nc1=O [Cap analog 23, 3-O-Me-m7G(5′)ppp(5′)(2′OMeC)p(2′OMeA)]",0.41,–,–,–,4.5 mg,94.65%
"CO[C@@H]1[C@H](OP(=O)(O)OC[C@H]2O[C@@H](n3cnc4c(N)ncnc43)[C@H](OC)[C@@H]2O)[C@@H](COP(=O)(O)OP(=O)(O)OP(=O)([O-])OC[C@H]2O[C@@H](n3c[n+](C)c4c(=O)[nH]c(N)nc43)[C@H](O)[C@@H]2OC)O[C@H]1n1ccc(=O)[nH]c1=O [Cap analog 24, 3-O-Me-m7G(5′)ppp(5′)(2′OMeU)p(2′OMeA)]",0.48,–,–,–,4.7 mg,94.72%
"CO[C@@H]1[C@H](O)[C@@H](COP(=O)(O)O[C@H]2[C@@H](OC)[C@H](n3cnc4c(N)ncnc43)O[C@@H]2COP(=O)(O)OP(=O)(O)OP(=O)([O-])OC[C@H]2O[C@@H](n3c[n+](C)c4c(=O)[nH]c(N)nc43)[C@H](O)[C@@H]2OC)O[C@H]1n1ccc(N)nc1=O [Cap analog 25, 3-O-Me-m7G(5′)ppp(5′)(2′OMeA)p(2′OMeC)]",0.29,–,–,–,4.1 mg,94.8%
"CO[C@@H]1[C@H](O)[C@@H](COP(=O)(O)O[C@H]2[C@@H](OC)[C@H](n3cnc4c(=O)[nH]c(N)nc43)O[C@@H]2COP(=O)(O)OP(=O)(O)OP(=O)([O-])OC[C@H]2O[C@@H](n3c[n+](C)c4c(=O)[nH]c(N)nc43)[C@H](O)[C@@H]2OC)O[C@H]1n1ccc(N)nc1=O [Cap analog 26, 3-O-Me-m7G(5′)ppp(5′)(2′OMeG)p(2′OMeC)]",0.49,–,–,–,4.6 mg,94.97%
"CO[C@@H]1[C@H](O)[C@@H](COP(=O)(O)O[C@H]2[C@@H](OC)[C@H](n3ccc(N)nc3=O)O[C@@H]2COP(=O)(O)OP(=O)(O)OP(=O)([O-])OC[C@H]2O[C@@H](n3c[n+](C)c4c(=O)[nH]c(N)nc43)[C@H](O)[C@@H]2OC)O[C@H]1n1ccc(N)nc1=O [Cap analog 27, 3-O-Me-m7G(5′)ppp(5′)(2′OMeC)p(2′OMeC)]",0.09,–,–,–,4.7 mg,94.88%
"CO[C@@H]1[C@H](O)[C@@H](COP(=O)(O)O[C@H]2[C@@H](OC)[C@H](n3ccc(=O)[nH]c3=O)O[C@@H]2COP(=O)(O)OP(=O)(O)OP(=O)([O-])OC[C@H]2O[C@@H](n3c[n+](C)c4c(=O)[nH]c(N)nc43)[C@H](O)[C@@H]2OC)O[C@H]1n1ccc(N)nc1=O [Cap analog 28, 3-O-Me-m7G(5′)ppp(5′)(2′OMeU)p(2′OMeC)]",0.52,–,–,–,4.8 mg,94.62%
"CO[C@@H]1[C@H](O)[C@@H](COP(=O)(O)O[C@H]2[C@@H](OC)[C@H](n3cnc4c(N)ncnc43)O[C@@H]2COP(=O)(O)OP(=O)(O)OP(=O)([O-])OC[C@H]2O[C@@H](n3c[n+](C)c4c(=O)[nH]c(N)nc43)[C@H](O)[C@@H]2OC)O[C@H]1n1ccc(=O)[nH]c1=O [Cap analog 29, 3-O-Me-m7G(5′)ppp(5′)(2′OMeA)p(2′OMeU)]",0.27,–,–,–,5.3 mg,94.93%
"CO[C@@H]1[C@H](O)[C@@H](COP(=O)(O)O[C@H]2[C@@H](OC)[C@H](n3cnc4c(=O)[nH]c(N)nc43)O[C@@H]2COP(=O)(O)OP(=O)(O)OP(=O)([O-])OC[C@H]2O[C@@H](n3c[n+](C)c4c(=O)[nH]c(N)nc43)[C@H](O)[C@@H]2OC)O[C@H]1n1ccc(=O)[nH]c1=O [Cap analog 30, 3-O-Me-m7G(5′)ppp(5′)(2′OMeG)p(2′OMeU)]",0.31,–,–,–,5.3 mg,94.8%
"CO[C@@H]1[C@H](O)[C@@H](COP(=O)(O)O[C@H]2[C@@H](OC)[C@H](n3ccc(N)nc3=O)O[C@@H]2COP(=O)(O)OP(=O)(O)OP(=O)([O-])OC[C@H]2O[C@@H](n3c[n+](C)c4c(=O)[nH]c(N)nc43)[C@H](O)[C@@H]2OC)O[C@H]1n1ccc(=O)[nH]c1=O [Cap analog 31, 3-O-Me-m7G(5′)ppp(5′)(2′OMeC)p(2′OMeU)]",0.4,–,–,–,4.5 mg,94.7%
"CO[C@@H]1[C@H](O)[C@@H](COP(=O)(O)O[C@H]2[C@@H](OC)[C@H](n3ccc(=O)[nH]c3=O)O[C@@H]2COP(=O)(O)OP(=O)(O)OP(=O)([O-])OC[C@H]2O[C@@H](n3c[n+](C)c4c(=O)[nH]c(N)nc43)[C@H](O)[C@@H]2OC)O[C@H]1n1ccc(=O)[nH]c1=O [Cap analog 32, 3-O-Me-m7G(5′)ppp(5′)(2′OMeU)p(2′OMeU)]",0.3,–,–,–,4.3 mg,94.66%
COC1C(OP(=O)(O)OCC2OC(n3cnc4c(=O)[nH]c(N)nc43)C(O)C2O)C(COP(=O)(O)OP(=O)([O-])OP(=O)(O)OCC2OC(n3c[n+](C)c4c(=O)[nH]c(N)nc43)C(O)C2O)OC1n1cnc2c(N)ncnc21 (centres unmarked) [Cleancap],0.76,4 mg,90%,less immunogenic than ARCA,–,–
